Among the data in ChEMBL document CHEMBL1143189 are pKb values, retold here.

The target in this experiment is T1, Type-1 angiotensin II receptor A (Rattus norvegicus) (UniProt P25095).
T1 sequence (whole entry): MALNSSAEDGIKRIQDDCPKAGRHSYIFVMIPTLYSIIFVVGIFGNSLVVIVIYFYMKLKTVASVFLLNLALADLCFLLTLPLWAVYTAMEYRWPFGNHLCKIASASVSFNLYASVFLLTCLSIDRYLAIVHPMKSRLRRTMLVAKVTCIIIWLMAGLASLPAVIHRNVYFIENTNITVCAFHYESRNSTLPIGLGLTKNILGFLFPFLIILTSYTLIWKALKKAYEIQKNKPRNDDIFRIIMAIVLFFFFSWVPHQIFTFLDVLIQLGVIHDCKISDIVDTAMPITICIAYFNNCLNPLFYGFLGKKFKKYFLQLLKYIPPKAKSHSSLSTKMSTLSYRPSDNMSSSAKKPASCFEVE
The experiment is described as follows: Antagonist activity at rat AT1 receptor expressed in CHO cells assessed as angiotensin 2-evoked increase in intracellular calcium level. Type of experiment: functional, cell-based. (In general: Calcium flux is commonly read through the fluorescence of an indicator in the cells.)

With `CCCCc1ncc(/C=C(\Cc2cccs2)C(=O)O)n1Cc1ccc(C(=O)O)cc1`, the negative logarithm of the Kb (pKb) is 8.8.

By pKb is commonly meant −log10 of the Kb, conventionally taken in molar units.
